According to US12559506B2, “Indazole based compounds and associated methods of use” (Arvinas Operations, Inc., priority 2021, dated 2026):

Target: T1, LRRK2 (endogenous, HiBit tagged) (Homo sapiens, UniProt Q5S007)
T1 construct: endogenous in cells; host or cells: HEK293 cells with HiBit knock-in at the endogenous LRRK2 locus, stably expressing firefly luciferase
Assay: Endogenous LRRK2 degradation assay, endogenous gene C-terminally HiBit-tagged in HEK293 cells (Nano-Glo Dual Luciferase)
Type: cell-based
Details: endogenous HiBit-tagged LRRK2 in HEK293 cells, 24 hours treatment; for Dmax: read-out: **Endogenous WT Dmax (%); for DC50: read-out: *Endogenous WT DC50
How it was run: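 LRRK2-HiBit quantified via Nano-Glo Dual Luciferase in HEK293 knock-in cells co-expressing firefly luciferase, after 24 h exposure to compound (1 μM final top, 1:3, 11 points). Values normalised to DMSO median per plate and curve-fitted; Alamar Blue viability run alongside.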

T1 sequence (Q5S007 whole entry): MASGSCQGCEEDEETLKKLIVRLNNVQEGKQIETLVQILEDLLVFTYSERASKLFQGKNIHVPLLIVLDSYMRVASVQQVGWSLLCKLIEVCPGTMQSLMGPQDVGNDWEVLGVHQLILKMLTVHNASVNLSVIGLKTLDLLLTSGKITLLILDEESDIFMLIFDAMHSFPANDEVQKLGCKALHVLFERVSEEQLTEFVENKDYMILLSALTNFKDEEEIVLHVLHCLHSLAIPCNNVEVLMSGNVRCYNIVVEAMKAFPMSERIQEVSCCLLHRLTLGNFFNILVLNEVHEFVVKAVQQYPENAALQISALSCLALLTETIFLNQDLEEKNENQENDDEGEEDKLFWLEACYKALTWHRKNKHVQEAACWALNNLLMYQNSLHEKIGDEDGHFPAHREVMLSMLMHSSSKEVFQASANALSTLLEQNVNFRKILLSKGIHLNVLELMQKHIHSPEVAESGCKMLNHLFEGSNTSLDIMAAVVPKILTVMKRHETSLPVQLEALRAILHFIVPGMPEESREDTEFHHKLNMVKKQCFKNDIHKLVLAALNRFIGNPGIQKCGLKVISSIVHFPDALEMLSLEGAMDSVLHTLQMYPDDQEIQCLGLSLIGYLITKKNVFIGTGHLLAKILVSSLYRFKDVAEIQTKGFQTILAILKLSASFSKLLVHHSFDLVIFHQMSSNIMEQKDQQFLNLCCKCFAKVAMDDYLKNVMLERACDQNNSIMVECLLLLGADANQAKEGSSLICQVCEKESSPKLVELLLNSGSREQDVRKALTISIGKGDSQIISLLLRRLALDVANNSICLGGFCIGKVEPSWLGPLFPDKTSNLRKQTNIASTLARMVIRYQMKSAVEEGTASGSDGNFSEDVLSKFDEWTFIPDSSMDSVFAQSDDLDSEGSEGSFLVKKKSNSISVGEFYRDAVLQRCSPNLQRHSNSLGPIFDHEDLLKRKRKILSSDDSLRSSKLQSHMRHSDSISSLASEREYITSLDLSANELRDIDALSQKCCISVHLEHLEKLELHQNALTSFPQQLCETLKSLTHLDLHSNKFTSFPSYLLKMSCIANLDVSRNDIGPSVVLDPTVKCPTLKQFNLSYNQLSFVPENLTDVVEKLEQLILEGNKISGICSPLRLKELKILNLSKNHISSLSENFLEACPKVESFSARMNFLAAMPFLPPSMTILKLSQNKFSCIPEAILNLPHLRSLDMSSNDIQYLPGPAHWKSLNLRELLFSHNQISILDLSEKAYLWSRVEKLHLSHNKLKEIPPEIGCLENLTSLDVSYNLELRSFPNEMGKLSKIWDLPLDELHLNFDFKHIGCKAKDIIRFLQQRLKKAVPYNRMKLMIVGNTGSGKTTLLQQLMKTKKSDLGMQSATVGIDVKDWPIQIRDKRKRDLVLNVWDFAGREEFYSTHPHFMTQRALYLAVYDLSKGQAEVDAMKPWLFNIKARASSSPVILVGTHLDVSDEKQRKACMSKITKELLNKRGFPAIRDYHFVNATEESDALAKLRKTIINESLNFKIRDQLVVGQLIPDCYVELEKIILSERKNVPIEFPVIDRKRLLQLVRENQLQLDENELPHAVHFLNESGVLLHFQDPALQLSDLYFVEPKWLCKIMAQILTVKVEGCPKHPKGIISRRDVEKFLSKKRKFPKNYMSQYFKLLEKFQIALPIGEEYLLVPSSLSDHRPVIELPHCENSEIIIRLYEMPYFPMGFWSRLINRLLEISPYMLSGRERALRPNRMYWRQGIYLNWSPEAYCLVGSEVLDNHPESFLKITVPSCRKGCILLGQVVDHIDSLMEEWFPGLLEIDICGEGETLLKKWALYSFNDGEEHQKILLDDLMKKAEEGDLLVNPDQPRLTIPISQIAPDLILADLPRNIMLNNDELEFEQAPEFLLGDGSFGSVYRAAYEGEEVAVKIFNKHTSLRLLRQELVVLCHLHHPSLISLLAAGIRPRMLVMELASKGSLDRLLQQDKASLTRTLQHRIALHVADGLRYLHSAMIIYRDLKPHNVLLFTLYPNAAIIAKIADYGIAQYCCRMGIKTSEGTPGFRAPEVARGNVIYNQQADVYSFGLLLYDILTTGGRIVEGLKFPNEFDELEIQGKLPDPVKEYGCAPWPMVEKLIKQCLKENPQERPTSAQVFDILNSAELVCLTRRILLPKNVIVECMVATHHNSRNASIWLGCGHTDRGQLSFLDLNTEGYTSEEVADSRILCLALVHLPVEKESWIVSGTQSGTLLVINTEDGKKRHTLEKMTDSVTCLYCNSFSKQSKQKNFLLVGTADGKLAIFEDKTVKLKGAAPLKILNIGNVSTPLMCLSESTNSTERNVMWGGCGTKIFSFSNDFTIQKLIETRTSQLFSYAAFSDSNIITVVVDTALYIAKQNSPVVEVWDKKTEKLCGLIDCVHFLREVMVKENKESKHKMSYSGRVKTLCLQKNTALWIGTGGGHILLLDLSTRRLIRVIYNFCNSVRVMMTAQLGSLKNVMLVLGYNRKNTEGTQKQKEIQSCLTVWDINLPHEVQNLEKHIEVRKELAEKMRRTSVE

CC1(Oc2ccc3[nH]nc(-c4cc(N5CCN(CCN6CCC7(CN(c8ccc9c(c8F)CN(C8CCC(=O)NC8=O)C9=O)C7)C(F)(F)C6)CC5)ncn4)c3c2)CC1 (stereo not drawn) [Compound 336, 3-(5-{5,5-difluoro-7-[2-(4-{6-[5-(1-methylcyclopropoxy)-1H-indazol-3-yl]pyrimidin-4-yl}piperazin-1-yl)ethyl]-2,7-diazaspiro[3.5]nonan-2-yl}-4-fluoro-1-oxo-2,3-dihydro-1H-isoindol-2-yl)piperidine-2,6-dione]
Dmax: 50 to 70% | DC50: < 10 nM

CC1(Oc2ccc3n[nH]c(-c4cc(N5CCC(CN6CC(F)(CC7CCN(c8ccc9c(c8F)CN(C8CCC(=O)NC8=O)C9=O)CC7)C6)CC5)ncn4)c3c2)CC1 (stereo not drawn) [Compound 337, 3-{4-fluoro-5-[4-({3-fluoro-1-[(1-{6-[5-(1-methylcyclopropoxy)-2H-indazol-3-yl]pyrimidin-4-yl}piperidin-4-yl)methyl]azetidin-3-yl}methyl)piperidin-1-yl]-1-oxo-2,3-dihydro-1H-isoindol-2-yl}piperidine-2,6-dione]
Dmax: ≥ 70% | DC50: < 10 nM

COc1c(N2CCC(CN3CCN(CC4CCN(c5cc(-c6n[nH]c7cnc(OC8(C)CC8)cc67)ncn5)CC4)C(C)(C)C3)CC2)ccc2c1CN(C1CCC(=O)NC1=O)C2=O (stereo not drawn) [Compound 338, 3-{5-[4-({3,3-dimethyl-4-[(1-{6-[5-(1-methylcyclopropoxy)-1H-pyrazolo[3,4-c]pyridin-3-yl]pyrimidin-4-yl}piperidin-4-yl)methyl]piperazin-1-yl}methyl)piperidin-1-yl]-4-methoxy-1-oxo-2,3-dihydro-1H-isoindol-2-yl}piperidine-2,6-dione]
Dmax: 50 to 70% | DC50: < 10 nM

C[C@H]1CN(CC2CCN(CC3CCN(c4cc(-c5n[nH]c6ccc(OC7(C)CC7)cc56)ncn4)CC3)CC2)CCN1c1ccc2c(c1F)CN(C1CCC(=O)NC1=O)C2=O (stereo partly drawn) [Compound 339, 3-{4-fluoro-5-[(2S)-2-methyl-4-({1-[(1-{6-[5-(1-methylcyclopropoxy)-1H-indazol-3-yl]pyrimidin-4-yl}piperidin-4-yl)methyl]piperidin-4-yl}methyl)piperazin-1-yl]-1-oxo-2,3-dihydro-1H-isoindol-2-yl}piperidine-2,6-dione]
Dmax: 50 to 70% | DC50: < 10 nM

COc1c(N2CC3(CCN(CCC4CCN(c5cc(-c6n[nH]c7ccc(OC8(C)CC8)cc67)ncn5)CC4)CC3(F)F)C2)ccc2c1CN(C1CCC(=O)NC1=O)C2=O (stereo not drawn) [Compound 341, 3-(5-{5,5-difluoro-7-[2-(1-{6-[5-(1-methylcyclopropoxy)-1H-indazol-3-yl]pyrimidin-4-yl}piperidin-4-yl)ethyl]-2,7-diazaspiro[3.5]nonan-2-yl}-4-methoxy-1-oxo-2,3-dihydro-1H-isoindol-2-yl)piperidine-2,6-dione]
Dmax: 50 to 70% | DC50: < 10 nM

CC1(Oc2ccc3n[nH]c(-c4cc(N5CCC(O[C@H]6C[C@H](N7CC[C@@H](c8ccc9c(c8)CN(C8CCC(=O)NC8=O)C9=O)[C@@H](F)C7)C6)CC5)ncn4)c3c2)CC1 (stereo partly drawn) [Compound 342, 3-{5-[(3r,4s)-3-fluoro-1-[(1r,3r)-3-[(1-{6-[5-(1-methylcyclopropoxy)-2H-indazol-3-yl]pyrimidin-4-yl}piperidin-4-yl)oxy]cyclobutyl]piperidin-4-yl]-1-oxo-2,3-dihydro-1H-isoindol-2-yl}piperidine-2,6-dione]
Dmax: 50 to 70% | DC50: < 10 nM

CC1(Oc2cc3c(-c4cc(N5CCC(CN6CCC(F)(CN7CCN(c8ccc9c(c8F)CN(C8CCC(=O)NC8=O)C9=O)CC7)CC6)CC5)ncn4)n[nH]c3cn2)CC1 (stereo not drawn) [Compound 343, 3-{4-fluoro-5-[4-({4-fluoro-1-[(1-{6-[5-(1-methylcyclopropoxy)-1H-pyrazolo[3,4-c]pyridin-3-yl]pyrimidin-4-yl}piperidin-4-yl)methyl]piperidin-4-yl}methyl)piperazin-1-yl]-1-oxo-2,3-dihydro-1H-isoindol-2-yl}piperidine-2,6-dione]
Dmax: 50 to 70% | DC50: < 10 nM

COc1c(N2CC3(CCN([C@H]4C[C@H](OC5CCN(c6cc(-c7[nH]nc8ccc(OC9(C)CC9)cc78)ncn6)CC5)C4)CC3)C2)ccc2c1CN(C1CCC(=O)NC1=O)C2=O (stereo partly drawn) [Compound 344, 3-(4-methoxy-1-oxo-5-{7-[(1r,3r)-3-[(1-{6-[5-(1-methylcyclopropoxy)-2H-indazol-3-yl]pyrimidin-4-yl}piperidin-4-yl)oxy]cyclobutyl]-2,7-diazaspiro[3.5]nonan-2-yl}-2,3-dihydro-1H-isoindol-2-yl)piperidine-2,6-dione]
Dmax: 50 to 70% | DC50: < 10 nM

COc1c(N2CCC(N3CC(F)(CC4CCN(c5cc(-c6[nH]nc7ccc(OC8(C)CC8)cc67)ncn5)CC4)C3)CC2)ccc2c1CN(C1CCC(=O)NC1=O)C2=O (stereo not drawn) [Compound 345, 3-(5-(4-(3-fluoro-3-((1-(6-(5-(1-methylcyclopropoxy)-2H-indazol-3-yl)pyrimidin-4-yl)piperidin-4-yl)methyl)azetidin-1-yl)piperidin-1-yl)-4-methoxy-1-oxoisoindolin-2-yl)piperidine-2,6-dione]
Dmax: 50 to 70% | DC50: < 10 nM

C[C@H]1CN(c2ccc3c(c2F)CN(C2CCC(=O)NC2=O)C3=O)CCN1C[C@H]1CC[C@H](OC2CCN(c3cc(-c4n[nH]c5ccc(OC6(C)CC6)cc45)ncn3)CC2)CC1 (stereo partly drawn) [Compound 346, 3-{4-fluoro-5-[(3S)-3-methyl-4-{[(1r,4r)-4-[(1-{6-[5-(1-methylcyclopropoxy)-1H-indazol-3-yl]pyrimidin-4-yl}piperidin-4-yl)oxy]cyclohexyl]methyl}piperazin-1-yl]-1-oxo-2,3-dihydro-1H-isoindol-2-yl}piperidine-2,6-dione]
Dmax: 50 to 70% | DC50: < 10 nM

COc1c(N2CCC(O[C@H]3C[C@H](N4CC5(CCN(c6cc(-c7[nH]nc8ccc(OC9(C)CC9)cc78)ncn6)CC5)C4)C3)CC2)ccc2c1CN(C1CCC(=O)NC1=O)C2=O (stereo partly drawn) [Compound 347, 3-(4-methoxy-1-oxo-5-{4-[(1r,3r)-3-(7-{6-[5-(1-methylcyclopropoxy)-2H-indazol-3-yl]pyrimidin-4-yl}-2,7-diazaspiro[3.5]nonan-2-yl)cyclobutoxy]piperidin-1-yl}-2,3-dihydro-1H-isoindol-2-yl)piperidine-2,6-dione]
Dmax: 50 to 70% | DC50: < 10 nM

C[C@H]1CN(c2cc(-c3n[nH]c4ccc(OC5(C)CC5)cc34)ncn2)CCN1C[C@H]1CC[C@H](OC2CCN(c3ccc4c(c3F)CN(C3CCC(=O)NC3=O)C4=O)CC2)CC1 (stereo partly drawn) [Compound 348, 3-(4-fluoro-5-(4-(((1s,4r)-4-(((S)-2-methyl-4-(6-(5-(1-methylcyclopropoxy)-1H-indazol-3-yl)pyrimidin-4-yl)piperazin-1-yl)methyl)cyclohexyl)oxy)piperidin-1-yl)-1-oxoisoindolin-2-yl)piperidine-2,6-dione]
Dmax: 50 to 70% | DC50: < 10 nM

COc1c(N2CCC(CN3CCN(CC4CCN(c5cc(-c6n[nH]c7cc(F)c(OC8(C)CC8)cc67)ncn5)CC4)CC3(C)C)CC2)ccc2c1CN(C1CCC(=O)NC1=O)C2=O (stereo not drawn) [Compound 349, 3-{5-[4-({4-[(1-{6-[6-fluoro-5-(1-methylcyclopropoxy)-1H-indazol-3-yl]pyrimidin-4-yl}piperidin-4-yl)methyl]-2,2-dimethylpiperazin-1-yl}methyl)piperidin-1-yl]-4-methoxy-1-oxo-2,3-dihydro-1H-isoindol-2-yl}piperidine-2,6-dione]
DC50: < 10 nM

CC1(Oc2ccc3[nH]nc(-c4cc(N5CCC(CN6CCC7(CN(c8ccc9c(c8F)CN(C8CCC(=O)NC8=O)C9=O)C7)C(F)(F)C6)CC5)ncn4)c3c2)CC1 (stereo not drawn) [Compound 350, 3-(5-{5,5-difluoro-7-[(1-{6-[5-(1-methylcyclopropoxy)-1H-indazol-3-yl]pyrimidin-4-yl}piperidin-4-yl)methyl]-2,7-diazaspiro[3.5]nonan-2-yl}-4-fluoro-1-oxo-2,3-dihydro-1H-isoindol-2-yl)piperidine-2,6-dione]
Dmax: 50 to 70% | DC50: < 10 nM

CC1(Oc2ccc3n[nH]c(-c4cc(N5CCC(O[C@H]6C[C@H](CN7CCN(c8ccc9c(c8F)CN(C8CCC(=O)NC8=O)C9=O)CC7)C6)CC5)ncn4)c3c2)CC1 (stereo partly drawn) [Compound 351, 3-[4-fluoro-1-oxo-5-(4-{[(1r,3r)-3-[(1-{6-[5-(1-methylcyclopropoxy)-2H-indazol-3-yl]pyrimidin-4-yl}piperidin-4-yl)oxy]cyclobutyl]methyl}piperazin-1-yl)-2,3-dihydro-1H-isoindol-2-yl]piperidine-2,6-dione]
Dmax: 50 to 70% | DC50: < 10 nM

C[C@@H]1CN(c2cc(-c3n[nH]c4ccc(OC5(C)CC5)cc34)ncn2)C[C@H](C)N1C[C@H]1CC[C@H](OC2CCN(c3ccc4c(c3F)CN(C3CCC(=O)NC3=O)C4=O)CC2)CC1 (stereo partly drawn) [Compound 352, 3-[4-fluoro-1-oxo-5-(4-{[(1r,4r)-4-{[(2R,6S)-2,6-dimethyl-4-{6-[5-(1-methylcyclopropoxy)-1H-indazol-3-yl]pyrimidin-4-yl}piperazin-1-yl]methyl}cyclohexyl]oxy}piperidin-1-yl)-2,3-dihydro-1H-isoindol-2-yl]piperidine-2,6-dione]
Dmax: 50 to 70% | DC50: < 10 nM

C[C@H]1CN(C[C@H]2CC[C@H](OC3CCN(c4cc(-c5n[nH]c6ccc(OC7(C)CC7)cc56)ncn4)CC3)CC2)CCN1c1ccc2c(c1F)CN(C1CCC(=O)NC1=O)C2=O (stereo partly drawn) [Compound 353, 3-{4-fluoro-5-[(2S)-2-methyl-4-{[(1r,4r)-4-[(1-{6-[5-(1-methylcyclopropoxy)-1H-indazol-3-yl]pyrimidin-4-yl}piperidin-4-yl)oxy]cyclohexyl]methyl}piperazin-1-yl]-1-oxo-2,3-dihydro-1H-isoindol-2-yl}piperidine-2,6-dione]
Dmax: 50 to 70% | DC50: < 10 nM
